This is an account of results in patent US4570005A, “Process for the preparation of 2-arylpropyl ether or thioether derivatives” (priority 1980, dated 1986).

Molecules are shown by their SMILES. Some results are limits rather than exact numbers.

The test system of series [1] is tobacco cutworm. Description: Test 2: Tobacco Cutworm Larva Dipping Test, mortality after 24 hours. The series is classed as in vivo. The settings on record: 24 hours. Summed up:
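Second- and fifth-instar larvae dipped 5 s in a water dilution of an emulsifiable concentrate at 100 or 20 ppm, blotted, then held on artificial diet at 25° C. Dead and living larvae counted after 24 hours; mortality averaged over three cups.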

The test system of a further series is diamond back moth. Description: Test 4: Effect on Diamond Back Moth. The series is classed as in vivo. To be noted: Plutella, third-instar larvae, 24 hours, read-out: Mortality (%). In a few lines:
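Compound formulated as an emulsifiable concentrate, diluted in water to 100 or 20 ppm and sprayed at 3 ml per cup onto cabbage leaves holding 10 third-instar larvae. Mortality counted after 24 hours; mean of three cups.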

The next series concerns green peach aphid. Description: Test 5: Effect on Green Peach Aphid. The series is classed as in vivo. To be noted: Myzus persicae; 100 ppm; mortality class; 24 hours; read-out: Insecticidal Activity. The procedure: (§1) To a mixture of 20 parts of the compound of the present invention and 20 parts of Sorpol SM-200 (registered tradename for the product supplied by Toho Chemical Industrial Co., Ltd.) was added 60 parts of xylol, and the mixture was suffciently blended. The obtained emulsifiable concentrate was diluted at a predetermined concentration with distilled water, and the obtained dilution was used.
Seedlings (having 3 to 4 leaves) of an eggplant grown on a pot were inoculated with green peach aphids and the insects were allowed to grow. The number of the insects was counted. A chemical dilution having a concentration of 100 ppm, prepared in the same manner as described in Test 1, was applied with a spray gun at a rate of 10 ml per pot. Then, the pot was placed in a glass green house. After 24 hours, the number of living insects was counted and the mortality was calculated.
The test was made on three pots, and the average value was calculated. In Table 6, mark "A" indicates a mortality higher than 95%, mark "B" indicates a mortality of 80 to 95%, mark "C" indicates a mortality of 50 to 80%, and mark "D" indicates a mortality lower than 50%.

A further series concerns two-spotted spider mite. Put plainly: Test 6: Effect on Two-Spotted Spider mite Adults. In kind it is in vivo. The settings on record: Tetranychus urticae; 100 ppm; adults; 24 hours; 25° C; read-out: Mortality (%). The procedure:
as §1
A kidney bean leaf disc perforated with a cork borer (15 mm in diameter) was placed on water-impregnated absorbent cotton (2 cm×2 cm), and 10 adults of two-spotted spider mite were set free. A chemical dilution having a concentration of 100 ppm was applied with an applicator in an amount of 3 ml.
The leaf disc-placed absorbent cotton was placed in a thermostat chamber maintained at 25° C. After 24 hours, the number of killed adults was counted and the mortality was calculated. The test was made on three leaf discs and the average value was calculated.

Series [2] deals with resistant green rice leafhopper (collected at Nakagawara). Description: Test 3: Effect on Resistant Green Rice Leafhopper (collected at Nakagawara). To be noted: Nephotettix cincticeps, 24 h, read-out: Mortality (%), Green Rice Leafhopper Collected at Nakagawara. The series is classed as in vivo, Nephotettix cincticeps Uhler (Green rice leafhopper). Summed up: (§2)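 Emulsifiable concentrate diluted to 100 or 20 ppm was sprayed, 3 ml per pot, onto hydroponic rice seedlings at 2–3 leaves. After air-drying, 10 female adults of the Nakagawara (resistant) or Chigasaki (sensitive) strain were released per caged pot. Mortality was counted at 24 h and averaged over three pots.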

The test system of series [3] is sensitive green rice leafhopper (collected at Chigasaki). Description: whole plant or invertebrate. To be noted: Nephotettix cincticeps, sensitive female adults, 24 hours, read-out: Mortality (%), Green Rice Leafhopper Collected at Chigasaki. In kind it is in vivo. In a few lines:
as §2

Another series deals with German cockroach. Put plainly: Test 7: Effect on German Cockroach. The series is classed as in vivo. To be noted: Blattella germanica, male adults, agonized and killed after 24 hours, read-out: Mortality (%); for mortality at 10 mg/m2: 10 mg/m^2; for mortality at 50 mg/m2: 50 mg/m^2. Summed up:
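Petri dish floors were treated with 50 or 10 mg/m2 of compound (diluted emulsifiable concentrate) and air-dried. Ten male adult German cockroaches per dish were held at 25° C. Agonized and dead insects were counted after 24 hours, averaging two dishes.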

The next series in a line: Test 8: Fish Toxicity. In kind it is in vivo. To be noted: carp, water; concentration at which 1/2 of the test fishes were killed within 48 hours; read-out: Fish Toxicity, TLm48. The procedure:
A water tank having a width of 60 cm, a length of 30 cm and a height of 40 cm was filled with water, and 10 yearling carps having a body length of about 5 cm were set free in the tank and adapted to the environment in the tank. A test compound was applied so that the concentration in water was 10, 1 or 0.1 ppm. After 48 hours, the numbers of killed and living carps were counted and the influences on the fishes were examined.

The nature of series [4]: Test 9: Toxicity Test (acute oral toxicity, mice). The settings on record: mouse, in vivo, po. The procedure: A predetermined amount of a solution or suspension of a test compound in corn oil was orally administered to male mice having a body weight of 19 to 23 g (0.2 ml per 10 g of the body weight). After 7 days, the number of killed mice was counted and the influences on the mice were examined.

Series [5] deals with tobacco cutworm. Description: Test 1: Effect on Tobacco Cutworm (leaf immersion), mortality after 24 hours. To be noted: second-instar larvae, 25° C. The series is classed as in vivo. Summed up: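 Sweet-potato leaves dipped 10 s in emulsifiable concentrate diluted to 100 or 20 ppm, air-dried, then exposed to second-instar larvae at 25 °C. Mortality counted after 24 h, averaged over three cups.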

Setting [6] is: fifth-instar larvae, read-out: Motality (%), Fifth-Instar Larvae.
Where [7] appears, read: second-instar larvae, read-out: Motality (%), Second-Instar Larvae.

As to `CC(C)C(COCc1cccc(Oc2ccccc2)c1)c1ccc(Cl)cc1` (stereo not shown) [Comparative Compound (b), reference compound], the mortality at 100 ppm in the series with tobacco cutworm [1] (setting [6]) was 0%; in the series on tobacco cutworm [1] (setting [7]), 0%; in the series on diamond back moth it was 30%; in the series with green peach aphid, below 50%; with two-spotted spider mite it was 20%. The mortality at 20 ppm in the series on diamond back moth came to 10%.

On to `COc1ccc(C(C)(C)COCc2cccc(Oc3ccccc3)c2)cc1` [Compound 1, 3-Phenoxybenzyl 2-(4-methoxyphenyl)-2-methyl propyl ether], for which the mortality at 20 ppm in [2] and in series [3] was 100% in each case. Moreover, the mortality at 100 ppm in series [2] was 100%; in series [3], 100%; in the series on green peach aphid, 80 to 95%; in the series on two-spotted spider mite it was 100%. Further, the mortality at 10 mg/m2 with German cockroach was 100%. Besides, the mortality at 50 mg/m2 with German cockroach was 100%. In “Test 8: Fish Toxicity”, the LC50 at 48 h is above 10 µg/mL. In addition, the LD50 – broadly, the dose at which mortality reaches 50% – at 168 h in [4] was above 500 mg/kg.

In the case of `CC(C)(COCc1cccc(Oc2ccccc2)c1)c1ccccc1` [Compound 5, 3-Phenoxybenzyl 2-phenyl-2-methylpropyl ether], the mortality at 20 ppm in series [2] and in [3] was 100% throughout. For the same compound, the mortality at 100 ppm in series [2] is 100%; in series [3], 100%; in the series on green peach aphid, above 95%; in the series on two-spotted spider mite, 100%. Further, the mortality at 10 mg/m2 with German cockroach was 80%. In the series with German cockroach, the mortality at 50 mg/m2 is 100%. In series [4], the LD50 at 168 h is above 500 mg/kg.

For the compound `CC(C)(COCc1cccc(Oc2ccccc2)c1)c1ccc(OC(F)F)cc1` [Compound 18, 3-phenoxybenzyl 2-(4-difluoromethoxyphenyl)-2-methylpropyl ether], the mortality at 20 ppm (with tobacco cutworm [5]; in the series with tobacco cutworm [1] (setting [6]); in the series on tobacco cutworm [1] (setting [7]); in series [2]; in [3]; in the series on diamond back moth) was 100% in each case. Further, the mortality at 100 ppm (with tobacco cutworm [5]; with tobacco cutworm [1] (setting [6]); in the series on tobacco cutworm [1] (setting [7]); in [2]; in series [3]; in the series on diamond back moth) was 100% throughout. Further, the results for the mortality at 100 ppm with green peach aphid and with two-spotted spider mite were above 95% and 100%, respectively. Further, the mortality at 10 mg/m2 in the series with German cockroach was 100%. Moreover, in the series on German cockroach, the mortality at 50 mg/m2 turned out to be 100%. This compound yielded an LD50 at 168 h in [4] above 500 mg/kg.

As to `CC(C)(CSCc1cccc(Oc2ccccc2)c1)c1ccc(Cl)cc1` [Compound 20, 3-Phenoxybenzyl 2-(4-chlorophenyl)-2-methylpropyl thioether], the mortality at 20 ppm in the series with tobacco cutworm [5] is 100%; in the series on tobacco cutworm [1] (setting [6]) it was 80%; in the series on tobacco cutworm [1] (setting [7]), 90%; in [2] it was 80%; in series [3], 50%; with diamond back moth, 100%. Besides, the mortality at 100 ppm (in the series on tobacco cutworm [5]; with tobacco cutworm [1] (setting [6]); in the series with tobacco cutworm [1] (setting [7]); in series [2]; in series [3]; in the series on diamond back moth) was 100% throughout. Further, the mortality at 100 ppm with green peach aphid is above 95%; with two-spotted spider mite, 100%. In addition, the LC50 at 48 h in the series “Test 8: Fish Toxicity” is above 10 µg/mL. The same compound showed an LD50 at 168 h in series [4] above 500 mg/kg.

For the compound `CCCOc1ccc(C(C)(C)COCc2cccc(Oc3ccccc3)c2)cc1` [Compound 57, 3-Phenoxybenzyl 2-[4-(n-propoxy)phenyl]-2-methylpropyl ether], the mortality at 20 ppm in the series on tobacco cutworm [5] was determined as 100%; in series [2] it was 100%; in series [3] it was 100%; in the series on diamond back moth, 75%. In addition, the mortality at 100 ppm in the series on tobacco cutworm [5] was 100%; in series [2] it was 100%; in series [3] it was 100%; with diamond back moth it was 100%; in the series with green peach aphid, above 95%; in the series on two-spotted spider mite it was 90%. In addition, in series [4], the median lethal dose (LD50) at 168 h was above 500 mg/kg.

In the case of `CC(C)Oc1ccc(C(C)(C)COCc2cccc(Oc3ccccc3)c2)cc1` [Compound 59, 3-Phenoxybenzyl 2-(4-isopropoxyphenyl)-2-methylpropyl ether], the mortality at 20 ppm in the series with tobacco cutworm [1] (setting [6]) was 100%; in the series on tobacco cutworm [1] (setting [7]), 100%; in series [2], 100%; in series [3] it was 100%; with diamond back moth it was 85%. For the same compound, the mortality at 100 ppm was 100% in the series with tobacco cutworm [1] (setting [6]); 100% with tobacco cutworm [1] (setting [7]); 100% in series [2]; 100% in series [3]; 100% with diamond back moth; above 95% with green peach aphid. Further, in the series on two-spotted spider mite, the mortality at 100 ppm was 100%. For the same compound, the mortality at 10 mg/m2 with German cockroach was determined as 100%. In the series on German cockroach, the mortality at 50 mg/m2 came to 100%. Further, the 50% lethal dose (LD50) at 168 h in series [4] was above 500 mg/kg.

Turning to `CC(C)COc1ccc(C(C)(C)COCc2cccc(Oc3ccccc3)c2)cc1` [Compound 64, 3-Phenoxybenzyl 2-(4-isobutyloxyphenyl)-2-methylpropyl ether], in the series with diamond back moth, the mortality at 20 ppm came to 70%. For the same compound, the values for the mortality at 100 ppm in the series on diamond back moth, in the series on green peach aphid and in the series with two-spotted spider mite were 100%, above 95% and 100%, respectively. The compound further came in with an LD50 at 168 h in series [4] above 500 mg/kg.

In the case of `CCCCOc1ccc(C(C)(C)COCc2cccc(Oc3ccccc3)c2)cc1` [Compound 69, 3-Phenoxybenzyl 2-[4-(n-butoxy)phenyl]-2-methylpropyl ether], the mortality at 100 ppm in the series with green peach aphid is above 95%; in the series with two-spotted spider mite, 60%. Moreover, in the series “Test 8: Fish Toxicity”, the LC50 at 48 h is above 1 µg/mL. The same compound displayed an LD50 at 168 h in [4] above 500 mg/kg.

`CC(C)(C)c1ccc(C(C)(C)COCc2cccc(Oc3ccccc3)c2)cc1` [Compound 105, 3-Phenoxybenzyl 2-(4-tert-butylphenyl)-2-methylpropyl ether]: the mortality at 100 ppm in the series with green peach aphid is 80 to 95%; in the series with two-spotted spider mite, 100%. The LC50 at 48 h in “Test 8: Fish Toxicity” was above 1 µg/mL. In [4], this compound returned an LD50 at 168 h above 500 mg/kg.
